Experiment [1] deals with T1, α7 nicotinic acetylcholine receptor (Rattus norvegicus, UniProt Q05941).
T1 construct: Currents were recorded from individual neurons using the whole; endogenous in cells; host or cells: primary hippocampal neurons from postnatal day 3 Sprague-Dawley rats, cultured 1-2 weeks
As to the kind of experiment: Resensitization of desensitized α7 nicotinic acetylcholine receptor, whole cell patch clamp. Type of experiment: cell-based.

Experiment [2] has as its target T1, α7 nicotinic acetylcholine receptor. As to the kind of experiment: Inhibition of desensitization of α7 nicotinic acetylcholine receptor by acetylcholine, whole cell patch clamp. The experiment is classed as cell-based. Conditions: rat hippocampal neurons, continuous exposure to compound, acetylcholine 1 mM applied for 1 second once every minute. In general terms: The patch-clamp technique gives a direct electrical read-out from membranes.

Each structure is given as a SMILES string. Entries after “also recorded” stand apart in the source; their conditions may differ. Read-outs that look alike come from different tables or passages of the source.

T1 sequence (Q05941 23-502): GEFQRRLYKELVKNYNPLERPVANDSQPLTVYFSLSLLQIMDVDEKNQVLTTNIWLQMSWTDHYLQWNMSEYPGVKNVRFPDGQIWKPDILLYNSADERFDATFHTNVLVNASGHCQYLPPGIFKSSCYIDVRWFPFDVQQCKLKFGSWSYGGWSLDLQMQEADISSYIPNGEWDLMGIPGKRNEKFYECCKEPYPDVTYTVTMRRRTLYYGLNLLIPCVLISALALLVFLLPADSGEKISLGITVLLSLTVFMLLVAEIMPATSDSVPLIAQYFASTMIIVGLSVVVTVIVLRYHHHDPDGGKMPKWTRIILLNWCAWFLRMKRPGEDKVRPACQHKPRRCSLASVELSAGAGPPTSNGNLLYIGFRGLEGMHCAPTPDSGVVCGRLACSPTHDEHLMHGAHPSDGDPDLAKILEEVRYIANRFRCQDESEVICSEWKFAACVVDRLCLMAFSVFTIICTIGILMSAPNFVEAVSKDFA

Take `Oc1ccc2[nH]ccc2c1` [5-hydroxyindole]: in experiment [1] (rat hippocampal neurons, applied after 60 seconds of continuous exposure to agonist Compound 1 (3 μM), in its continued presence), the “resensitization of the desensitized α7 nicotinic acetylcholine receptor (inward current evoked in the continued presence of agonist)” value was “does not resensitize; also recorded: did not resensitize; also recorded: no significant effect”. Further, the “inhibition of desensitization (desensitization kinetics of acetylcholine-induced ion currents)” value in experiment [2] is given as “does not alter the rate of receptor desensitization; also recorded: had no such effect; also recorded: did not affect the desensitization kinetics”. On to `COc1cc(OC)c(NC(=O)Nc2cc(C)on2)cc1Cl` [Compound 2, N-(5-chloro-2,4-dimethoxyphenyl)-N′-(5-methylisoxazol-3-yl)urea], for which, in experiment [1], the “resensitization of the desensitized α7 nicotinic acetylcholine receptor (inward current evoked in the continued presence of agonist)” value is on record as “resensitizes; also recorded: large persistent inward current that was readily reversed upon washout”. For the same compound, the “inhibition of desensitization (desensitization kinetics of acetylcholine-induced ion currents)” value is listed as “inhibition” in experiment [2] and “significant inhibition or slowing of receptor desensitization” in experiment [2] (listed as compound 2). Consider `CN1CCCC1c1cccnc1` (stereo not shown) [nicotine], for which, in experiment [1] (nicotine as agonist, expected result ("should result")), the “agonist-evoked inward current and receptor desensitization” value is listed as “initial inward current that rapidly declines back to baseline”.

As to `Cl.O=C(N[C@H]1CN2CCC1CC2)c1ccc(Cl)cc1` [Compound 1, N-[(3R)-1-azabicyclo[2.2.2]oct-3-yl]-4-chlorobenzamide hydrochloride], the “agonist-evoked inward current and receptor desensitization” value in experiment [1] (rat hippocampal neurons, agonist applied continuously for 3 minutes, hydrochloride) is “desensitization; also recorded: initial inward current that rapidly declined back to baseline”.

The values above are taken from patent US20060142349A1, “Methods of modulating the activities of alpha-7 nicotinic acetylcholine receptor” (Pfizer Inc, priority 2004, published 2006).
